According to patent US10697960B2, “CXCR4 and ROBO1 expression as markers for autoimmune diabetes” (BOARD OF SUPERVISORS OR LOUISANA STATE UNIVERSITY AND …, priority 2012, dated 2020):
“Also recorded” adds a separate entry of the source. Square brackets hold non-standard residues; d marks the D form. Ends that are not written are not given here. Linker = not defined here

Assays:
[1] = tested on: adoptive transfer models in mice; conditions: cited from earlier work
[2] = tested on: NOD/ShiLtJ T cells on TNFα-activated MS1 islet endothelial cells; assay: Parallel plate flow chamber T cell adhesion assay with SDF-1 peptide mimetic; type: cell-based, mouse; conditions: 150 mPa; for TNFα-induced firm adhesion of T cells (fold change in number of adherent cells): MS1 cells treated 10 minutes with mimetic at 200, 1000 or 5000 ng/ml after 10 ng/ml TNFα, versus TNFα alone
Protocol: Hydrodynamic flow chamber assays were performed as otherwise described in C. Sharp et al. (2008). Briefly, T cells isolated as described above were labeled with CellTracker Green (C7025; Life Technologies, Carlsbad, Calif., USA), rinsed, and resuspended at a concentration of 2×10^6 cells/ml in phenol red-free Hanks' balanced salt solution (HBSS). The cells were placed in a beaker that had been previously coated with Sigmacote (Sigma-Aldrich), kept at 37° C., and stirred at 60 rev/min. A flow chamber insert and gasket with a 0.5 cm flow width and 250 μm thickness (GlycoTech, Gaithersburg, Md., USA) were used with 35 mm cell culture dishes containing confluent MS1 cell cultures to form a parallel plate flow chamber. To activate endothelial cells, MS1 cells were treated for 4 to 6 hours at 37° C. with 10 ng/ml recombinant mouse TNFα (T7539; Sigma).
For the SDF-1 peptide mimetic T cell adhesion assay, MS1 cells were rinsed with HBSS and treated for 10 minutes with an SDF-1 peptide mimetic (AYWKENKEQ with two branched lysines as a linker between the two motifs, SEQ ID NO 1) at […]. This peptide was a linearized version of a cyclized SDF-1 analogue reported by Tudan et al., “C-terminal cyclization of an SDF-1 small peptide analogue dramatically increases receptor affinity and activation of CXCR4 receptor,” J. Med. Chem., vol. 45, pp. 2024-31 (2002). T cells were pumped through polypropylene tubing by a syringe pump (KD Scientific, Holliston, Mass., USA) across the endothelial monolayer at a physiological shear stress of 150 mPa. Real-time digital video images (minimum 28 frames/second) were captured with an epifluorescence microscope (TE-2000 Eclipse; Nikon, Tokyo, Japan) and digital camera (Model C4742-95-12ER: Hamamatsu Photonics, Hamamatsu, Japan). Simple PCI software (Hamamatsu Photonics) was used to analyze the video and to measure T cell rolling velocities. Cells were considered firmly adherent if they remained stationary for 10 seconds within the field of view. A minimum of three videos per plate and four plates per condition were used for analysis.
We examined whether a linear SDF-1 peptide mimetic containing the receptor-binding site could replicate the effect of full length SDF-1 in blocking adhesion of T cells to activated endothelium. MS1 cells were treated for 4 hours with 10 ng/ml TNFα, followed by treatment for 10 minutes with an SDF-1 peptide mimetic at 200, 1000, or 5000 ng/ml. Cells were then tested in a parallel plate flow chamber cell adhesion assay. Fluorescently labeled T cells obtained from NOD/ShiLtJ mice flowed over the endothelial monolayers at 150 mPa. […] Leucocyte adhesion videos were analyzed to calculate T cell rolling velocity and to determine whether the decrease in firm adhesion was due to a decreased number of rolling cells.

CD34^+ cells = conditions: at much higher concentrations than SDF-1; cited from earlier work
NOD/LtSz Rag1^−/− mice = assay: Diabetes adoptive transfer of diabetogenic splenocytes; type: in vivo, mouse; conditions: for blood glucose levels compared with PBS treatment: 4 to 5 weeks post-transfer
Protocol: Single cell suspensions of splenocytes were isolated from spleens of spontaneously diabetic female NOD/ShiLtJ mice as otherwise described in J. Glawe et al. (2009) Genetic deficiency of Itgb2 or ItgaL prevents autoimmune diabetes through distinctly different mechanisms in NOD/LtJ mice. Diabetes 58: 1292-1301, Erythrocytes were lysed with 150 mM NH4Cl, 1.0 mM/l KHCO3, and 0.1 mM disodium EDTA, and then resuspended in PBS at 200×10^6 splenocytes per ml. Female NOD/LtSz Rag1^−/− mice were injected retro-orbitally with 20×10^6 splenocytes.
The recipient mice were then injected retro-orbitally, either once or three times per week, with the SDF-1 peptide mimetic CTCE-0214 (SEQ ID NO. 2, KPVSLSYRCPCRFF-Linker-LKWIQEYLEKALN-OH) (British Canadian BioSciences, Vancouver, BC, Canada) at 1 or 10 mg/kg, or with PBS. See K Li, et al., “Small peptide analogue of SDF-1a supports survival of cord blood CD34+ cells in synergy with other cytokines and enhances their ex vivo expansion and engraftment into nonobese diabetic/severe combined immunodeficient mice,” Stem Cells, vol, 24, pp. 56-64 (2006); R. Zhong et al., “Small peptide analogs to stromal derived factor 1 enhance chemotactic migration of human and mouse hematopoietic cells,” Experimental Hematology, vol 32, pp. 470-475 (2004); A. Faber at al., “The many facets of SDF-1, CXCR4 agonists and antagonists on hematopoietic progenitor cells,” Journal of Biomedicine and Biotechnology, Article ID 26065; doi: 10.1155/200726065 (2007). Blood glucose was measured twice per week via a tail stick assay (Ascensia Glucometer Elite; Bayer, Leverkusen, Germany). Mice were considered hyperglycaemic following two consecutive measurements at 13.9 mM (250 mg/dl) glucose. Another SDF-1 mimetic that could be used is the CTCE-9908 peptide disclosed by A. Faber at al. (2007).

[3] = tested on: NOD/ShiLtJ T cells on VCAM-1- and ICAM-1-coated plates; assay: SLIT2 T cell detachment assay on VCAM-1- and ICAM-1-coated plates; type: cell-based, mouse; conditions: SDF-1 plus 20 μg/ml SLIT2 versus SDF-1 alone
Protocol: T cell detachment assays were performed as otherwise described in C. Sharp et al. (2008). T cells were injected into the tubing via an inlet port upstream of the flow chamber at a concentration of 2×10^6 cells/ml and allowed to firmly adhere under static conditions for 15 minutes. Next, shear stress was initiated and increased in a step-wise manner every 30 seconds as follows: 35, 56, 91, 224, 504, and 980 mPa. The assay was recorded by video, which was analyzed to determine the percentage of cells detached at the end of each shear stress interval. For the anti-ROBO1 detachment assay, MS1 cells were treated for […] at 37° C. with TNFα as described above and then with 100 ng/ml recombinant mouse SDF-1α (460-SD; R&D Systems). T cells were pre-treated for 30 minutes at 37° C. with 20 μg/ml ROBO1 blocking antibody (GT15144; Neuromics, Edina, Minn., USA) or isotype control (GT15900; Neuromics).
For the SLIT2 detachment assay, the following modifications were made. Vascular cell adhesion molecule 1 (VCAM-1)- and intercellular cell adhesion molecule 1 (ICAM-1)-coated plates were substituted for confluent monolayers of MS1 cells to isolate the specific ligand and receptor interactions involved. Plates were treated by tracing five 5 mm diameter circles aligned in one row in the center of a 100 mm diameter tissue culture dish using a PAP pen, and then applying 15 μl of 1 mg/ml protein A to each circle for 30 minutes. Plates were rinsed twice with PBS and blocked for 30 minutes with 5% (wt/vol) BSA in PBS. Plates were rinsed and each circle was then treated for 30 minutes with 15 μl of a solution containing 5 μg/ml ICAM-1/Fc chimera (796-IC; R&D Systems) and 5 μg/ml VCAM-1/Fc chimera (643-VM; R&D Systems), or PBS (control). Plates were rinsed and stored at 4° C. T cells were suspended in HBSS containing, 10 μg/ml heparin sodium and treated for 15 minutes at 37° C. with 250 ng/ml SDF-1 and 20 μg/ml recombinant mouse SLIT2 (5444-SL; R&D Systems) before use. A Glycotech rectangular flow chamber with a 250 μm thick gasket and a 1 cm wide flow path was used. […]

Molecule: c1cc(CN2CCCNCCNCCCNCC2)ccc1CN1CCCNCCNCCCNCC1 [AMD3100]
- development of diabetes ([1]; disruption of SDF-1-CXCR4 binding): accelerate the development of diabetes
- beta cell apoptosis ([1]; mouse, in vivo): induce beta cell apoptosis

Molecule: AYWKENKEQ with two branched lysines as a linker between the two motifs (also: two branched lysines as a linker between the two motifs) [SDF-1 peptide mimetic, linearized version of a cyclized SDF-1 analogue reported by Tudan et al]
- TNFα-induced firm adhesion of T cells (fold change in number of adherent cells) [2]: prevented NOD T cell adhesion; also recorded: significantly reduced; also recorded: reversed
- number of rolling cells ([2]; TNFα-treated MS1 cells, data not shown): did not decrease
- T cell rolling velocity ([2]; TNFα-treated endothelial cells, versus control): did not significantly affect

Molecule: KPVSLSYRCPCRFF-Linker-LKWIQEYLEKALN-OH (KPVSLSYRCPCRFF[Linker]LKWIQEYLEKALN-OH; cysteine pairing not given here; reading uncertain; also: printed as KPVSLSYRCPCRFF-Linker-LKWIQEYLEKALN-OH) [CTCE-0214, 2, small peptide CXCR4 agonist from British Canadian BioSciences]
- migration of CD34^+ cells (CD34^+ cells): increases migration
- progression of autoimmune diabetes (NOD/LtSz Rag1^−/− mice; 1 mg/kg): almost no effect
- blood glucose levels compared with PBS treatment (NOD/LtSz Rag1^−/− mice; 1 mg/kg three times per week): not
- blood glucose levels compared with PBS-treated mice (NOD/LtSz Rag1^−/− mice; 10 mg/kg once per week, retro-orbital, 5.5 and 6 weeks post-transfer): significantly reduced glucose levels
- development of hyperglycaemia compared with PBS treatment (NOD/LtSz Rag1^−/− mice; 10 mg/kg one time per week): delayed development of hyperglycaemia
- development of hyperglycaemia compared with PBS treatment (NOD/LtSz Rag1^−/− mice; 10 mg/kg three times per week): delayed development of hyperglycaemia
- blood glucose levels compared with PBS treatment (NOD/LtSz Rag1^−/− mice; 10 mg/kg three times per week): significantly reduced glucose levels
- adoptive transfer / progression of autoimmune diabetes, onset of hyperglycaemia (NOD/LtSz Rag1^−/− mice; 10 mg/kg where a dose is stated): significantly delayed the onset of hyperglycaemia; also recorded: therapeutically beneficial; also recorded: effectively delayed adoptive transfer of diabetes; also recorded: slowed the development of diabetes
- effect of dosing frequency on incidence of hyperglycaemia (NOD/LtSz Rag1^−/− mice; once per week versus three times per week): better reduction in the incidence of hyperglycaemia at a dosing of once per week; also recorded: more beneficial effect at once-a-week dosing
- TNFα-induced firm adhesion of T cells (fold change in number of adherent cells) [2]: can reduce

B1: SLIT2: recombinant mouse SLIT2 (5444-SL; R&D Systems), ligand of ROBO1 (protein)
chain: QACPAQCSCSGSTVDCHGLALRSVPRNIPRNTERLDLNGNNITRITKIDFAGLRHLRVLQLMENRISTIERGAFQDLKELERLRLNRNNLQLFPELLFLGTAKLYRLDLSENQIQAIPRKAFRGAVDIKNLQLDYNQISCIEDGAFRALRDLEVLTLNNNNITRLSVASFNHMPKLRTFRLHSNNLYCDCHLAWLSDWLRQRPRVGLYTQCMGPSHLRGHNVAEVQKREFVCSGHQSFMAPSCSVLHCPAACTCSNNIVDCRGKGLTEIPTNLPETITEIRLEQNSIRVIPPGAFSPYKKLRRLDLSNNQISELAPDAFQGLRSLNSLVLYGNKITELPKSLFEGLFSLQLLLLNANKINCLRVDAFQDLHNLNLLSLYDNKLQTVAKGTFSALRAIQTMHLAQNPFICDCHLKWLADYLHTNPIETSGARCTSPRRLANKRIGQIKSKKFRCSGTEDYRSKLSGDCFADLACPEKCRCEGTTVDCSNQRLNKIPDHIPQYTAELRLNNNEFTVLEATGIFKKLPQLRKINFSNNKITDIEEGAFEGASGVNEILLTSNRLENVQHKMFKGLESLKTLMLRSNRISCVGNDSFIGLGSVRLLSLYDNQITTVAPGAFDSLHSLSTLNLLANPFNCNCHLAWLGEWLRRKRIVTGNPRCQKPYFLKEIPIQDVAIQDFTCDDGNDDNSCSPLSRCPSECTCLDTVVRCSNKGLKVLPKGIPKDVTELYLDGNQFTLVPKELSNYKHLTLIDLSNNRISTLSNQSFSNMTQLLTLILSYNRLRCIPPRTFDGLKSLRLLSLHGNDISVVPEGAFNDLSALSHLAIGANPLYCDCNMQWLSDWVKSEYKEPGIARCAGPGEMADKLLLTTPSKKFTCQ
- shear-mediated T cell detachment from VCAM-1- and ICAM-1-coated plates [3]: significant increase in detachment; also recorded: promoted detachment
- shear-mediated T cell detachment from VCAM-1- and ICAM-1-coated plates ([3]; listed as Slit-2 peptide containing the LRR domain 2): stimulated detachment
- shear-mediated T cell detachment from VCAM-1- and ICAM-1-coated plates ([3]; listed as recombinant SLIT2): reversed
